Laboratory results: patent US9012642B2, “Pyrrolopyridinone compounds and methods for treating HIV” (ViiV Healthcare UK Limited, priority 2011, dated 2015)
Where a name gives a salt, the structure may show the parent alone. Read-outs that look alike come from different tables or passages of the source.

System: HIV
Experiment: HIV MT4 Assay (antiviral HIV activity in MT-4 cells)
Format: cell-based
Method: Antiviral HIV activity and cytotoxicity values for compounds of the invention from Table 1 were measured in parallel in the HTLV-1 transformed cell line MT-4 based on the method previously described (Hazen et al., 2007, In vitro antiviral activity of the novel, tyrosyl-based human immunodeficiency virus (HIV) type 1 protease inhibitor brecanavir (GW640385) in combination with other antiretrovirals and against a panel of protease inhibitor-resistant HIV (Hazen et al., “In vitro antiviral activity of the novel, tyrosyl-based human immunodeficiency virus (HIV) type 1 protease inhibitor brecanavir (GW640385) in combination with other antiretrovirals and against a panel of protease inhibitor-resistant HIV”, Antimicrob. Agents Chemother. 2007, 51: 3147-3154; and Pauwels et al., “Sensitive and rapid assay on MT-4 cells for the detection of antiviral compounds against the AIDS virus”, (J. of Virological Methods 1987, 16: 171-185).
Luciferase activity was measured 96 hours later by adding a cell titer glo (Promega, Madison, Wis.). Percent inhibition of cell protection data was plotted relative to no compound control. Under the same condition, cytotoxicity of the compounds was determined using cell titer Glo™ (Promega, Madison, Wis.). IC50s were determined from a 10 point dose response curve using 3-4-fold serial dilution for each compound, which spans a concentration range >1000 fold.
These values are plotted against the molar compound concentrations using the standard four parameter logistic equation: y=((Vmax*x^n)/(K^n+x^n))+Y^2
Y^2=minimum y n=slope factor
Vmax=maximum y x=compound concentration [M]

[1] = Human immunodeficiency virus 1, MT4, HTLV-1 transformed cell line MT-4, luciferase activity measured 96 hours later, Table 3, read-out: HIV MT4 Assay IC50
[2] = MT4, 96 h, read-out: MT4 (IC50)

Row | Compound | IC50 [1] [µM] | IC50 [2] [µM]
1 | Cc1ccc(-c2c(C(OC(C)(C)C)C(=O)O)n(C)c(=O)c3c2ccn3C)cc1 (centres unmarked) [Example 30, 2-(tert-butoxy)-2-(1,6-dimethyl-7-oxo-4-(p-tolyl)-6,7-dihydro-1H-pyrrolo[2,3-c]pyridin-5-yl)acetic acid] | 1.1 | 1.1
2 | Cn1c(C(OC(C)(C)C)C(=O)O)c(-c2ccc(Cl)cc2)c2ccn(Cc3ccccc3)c2c1=O (centres unmarked) [Example 1, 2-(1-benzyl-4-(4-chlorophenyl)-6-methyl-7-oxo-6,7-dihydro-1H-pyrrolo[2,3-c]pyridin-5-yl)-2-(tert-butoxy)acetic acid] | 0.22 | 0.22
3 | Cc1cn(Cc2ccccc2)c2c(=O)n(C)c(C(OC(C)(C)C)C(=O)O)c(-c3ccc(Cl)cc3)c12 (centres unmarked) [Example 15, 2-(1-benzyl-4-(4-chlorophenyl)-3,6-dimethyl-7-oxo-6,7-dihydro-1H-pyrrolo[2,3-c]pyridin-5-yl)-2-(tert-butoxy)acetic acid] | 1.62 | 1.62
4 | COc1ccc(Cn2ccc3c(-c4ccc5c(c4C)CCCO5)c(C(OC(C)(C)C)C(=O)O)n(C)c(=O)c32)cc1 (atropisomer, axis not shown; (M)) [Example 53, (S)(M)-2-(tert-butoxy)-2-(1-(4-methoxybenzyl)-6-methyl-4-(5-methylchroman-6-yl)-7-oxo-6,7-dihydro-1H-pyrrolo[2,3-c]pyridin-5-yl)acetic acid] | 0.01 | 0.01
5 | Cc1ccc(-c2c(C(OC(C)(C)C)C(=O)O)n(C)c(=O)c3c2c2c(n3Cc3ccc(F)cc3)CCOC2)cc1 (centres unmarked) [Example 58, 2-(tert-butoxy)-2-(5-(4-fluorobenzyl)-7-methyl-6-oxo-9-(p-tolyl)-1,3,4,5,6,7-hexahydropyrano[3′,4′:4,5]pyrrolo[2,3-c]pyridin-8-yl)acetic acid] | 0.75 | 0.75
6 | COCCn1ccc2c(-c3ccc(Cl)cc3)c(C(OC(C)(C)C)C(=O)O)n(C)c(=O)c21 (centres unmarked) [Example 4, 2-(tert-butoxy)-2-(4-(4-chlorophenyl)-1-(2-methoxyethyl)-6-methyl-7-oxo-6,7-dihydro-1H-pyrrolo[2,3-c]pyridin-5-yl)acetic acid] | 1.55 | 1.55
7 | Cc1c(-c2c(C(OC(C)(C)C)C(=O)O)n(C)c(=O)c3c2ccn3Cc2cscn2)ccc2c1CCCO2 (centres unmarked) [Example 50, 2-(tert-butoxy)-2-(6-methyl-4-(5-methylchroman-6-yl)-7-oxo-1-(thiazol-4-ylmethyl)-6,7-dihydro-1H-pyrrolo[2,3-c]pyridin-5-yl)acetic acid, Trifluoroacetic acid salt] | 0.23 | 0.23
8 | Cc1c(-c2c(C(OC(C)(C)C)C(=O)O)n(C)c(=O)c3c2ccn3Cc2ccc(Cl)cc2)ccc2c1CCCO2 (centres unmarked) [Example 44, 2-(tert-butoxy)-2-(1-(4-chlorobenzyl)-6-methyl-4-(5-methylchroman-6-yl)-7-oxo-6,7-dihydro-1H-pyrrolo[2,3-c]pyridin-5-yl)acetic acid] | 0.05 | 0.05
9 | COc1ccc(Cn2ncc3c(-c4ccc5c(c4C)CCCO5)c(C(OC(C)(C)C)C(=O)O)n(C)c(=O)c32)cc1 (centres unmarked) [Example 65] | 0.41 | 0.41
10 | CC(c1ccccc1)n1ccc2c(-c3ccc(Cl)cc3)c(C(OC(C)(C)C)C(=O)O)n(C)c(=O)c21 (centres unmarked) [Example 13, 2-(tert-butoxy)-2-(4-(4-chlorophenyl)-6-methyl-7-oxo-1-(1-phenylethyl)-6,7-dihydro-1H-pyrrolo[2,3-c]pyridin-5-yl)acetic acid] | 0.4 | 0.4
11 | Cn1c(C(OC(C)(C)C)C(=O)O)c(-c2ccc(Cl)cc2)c2ccn(Cc3cn4ccccc4n3)c2c1=O (centres unmarked) [Example 10, 2-(tert-butoxy)-2-(4-(4-chlorophenyl)-1-(imidazo[1,2-a]pyridin-2-ylmethyl)-6-methyl-7-oxo-6,7-dihydro-1H-pyrrolo[2,3-c]pyridin-5-yl)acetic acid] | 3 | 3
12 | Cn1c(C(OC(C)(C)C)C(=O)O)c(-c2ccc(Cl)cc2)c2ccn(Cc3cc(F)ccc3F)c2c1=O (centres unmarked) [Example 8, 2-(tert-butoxy)-2-(4-(4-chlorophenyl)-1-(2,5-difluorobenzyl)-6-methyl-7-oxo-6,7-dihydro-1H-pyrrolo[2,3-c]pyridin-5-yl)acetic acid] | 0.13 | 0.13
13 | Cc1c(-c2c(C(OC(C)(C)C)C(=O)O)n(C)c(=O)c3c2ccn3Cc2ccc(F)cc2)ccc2c1CCCO2 (atropisomer, axis not shown; (M)) [Example 41, (S)(M)-2-(tert-butoxy)-2-(1-(4-fluorobenzyl)-6-methyl-4-(5-methylchroman-6-yl)-7-oxo-6,7-dihydro-1H-pyrrolo[2,3-c]pyridin-5-yl)acetic acid] | 0.01 | 0.01
14 | Cn1c([C@H](OC(C)(C)C)C(=O)O)c(-c2ccc(Cl)cc2)c2ccn(Cc3ccc(F)c(F)c3)c2c1=O [Example 6, (S)-2-(tert-butoxy)-2-(4-(4-chlorophenyl)-1-(3,4-difluorobenzyl)-6-methyl-7-oxo-6,7-dihydro-1H-pyrrolo[2,3-c]pyridin-5-yl)acetic acid] | 0.14 | 0.14
15 | Cc1nc(Cn2ccc3c(-c4ccc(Cl)cc4)c(C(OC(C)(C)C)C(=O)O)n(C)c(=O)c32)cs1 (centres unmarked) [Example 11, 2-(tert-butoxy)-2-(4-(4-chlorophenyl)-6-methyl-1-((2-methylthiazol-4-yl)methyl)-7-oxo-6,7-dihydro-1H-pyrrolo[2,3-c]pyridin-5-yl)acetic acid] | 0.31 | 0.31
16 | Cn1c(C(OC(C)(C)C)C(=O)O)c(-c2ccc(Cl)cc2)c2ccn(Cc3ccc(C(F)(F)F)o3)c2c1=O (centres unmarked) [Example 9, 2-(tert-butoxy)-2-(4-(4-chlorophenyl)-6-methyl-7-oxo-1-((5-(trifluoromethyl)furan-2-yl)methyl)-6,7-dihydro-1H-pyrrolo[2,3-c]pyridin-5-yl)acetic acid] | 1.25 | 1.25
17 | Cc1ccc(-c2c(C(OC(C)(C)C)C(=O)O)n(C)c(=O)c3c2c2ccccc2n3Cc2ccc(F)cc2)cc1 (centres unmarked) [Example 56, 2-(tert-butoxy)-2-(9-(4-fluorobenzyl)-2-methyl-1-oxo-4-(p-tolyl)-2,9-dihydro-1H-pyrido[3,4-b]indol-3-yl)acetic acid] | 0.74 | 0.74
18 | Cc1c(-c2c(C(OC(C)(C)C)C(=O)O)n(C)c(=O)c3sc4c(c23)CCCC4)ccc2c1CCCO2 (centres unmarked) [Example 55, tert-Butoxy-[2-methyl-4-(5-methyl-chroman-6-yl)-1-oxo-1,2,5,6,7,8-hexahydro-benzo[4,5]thieno[2,3-c]pyridin-3-yl]-acetic acid] | 0.13 | 0.13
19 | Cc1c(-c2c(C(OC(C)(C)C)C(=O)O)n(C)c(=O)c3c2ccn3Cc2cccc(F)c2)ccc2c1CCCO2 (centres unmarked) [Example 45, 2-(tert-butoxy)-2-(1-(3-fluorobenzyl)-6-methyl-4-(5-methylchroman-6-yl)-7-oxo-6,7-dihydro-1H-pyrrolo[2,3-c]pyridin-5-yl)acetic acid] | 0.08 | 0.08
20 | COc1ccc(Cn2c3c(c4c(-c5ccc6c(c5C)CCCO6)c(C(OC(C)(C)C)C(=O)O)n(C)c(=O)c42)CCCC3)cc1 (centres unmarked) [Example 62, 2-(tert-butoxy)-2-(9-(4-methoxybenzyl)-2-methyl-4-(5-methylchroman-6-yl)-1-oxo-2,5,6,7,8,9-hexahydro-1H-pyrido[3,4-b]indol-3-yl)acetic acid] | 0.05 | 0.05
21 | COc1ccc(Cn2ccc3c(-c4ccc(Cl)cc4)c(C(OC(C)(C)C)C(=O)O)n(C)c(=O)c32)cc1 (centres unmarked) [Example 3, 2-(tert-butoxy)-2-(4-(4-chlorophenyl)-1-(4-methoxybenzyl)-6-methyl-7-oxo-6,7-dihydro-1H-pyrrolo[2,3-c]pyridin-5-yl)acetic acid] | 0.46 | 0.46
22 | Cc1ccc(-c2c(C(OC(C)(C)C)C(=O)O)n(C)c(=O)c3c2ccn3Cc2ccc(F)c(F)c2)cc1 (centres unmarked) [Example 28, 2-(tert-butoxy)-2-(1-(3,4-difluorobenzyl)-6-methyl-7-oxo-4-(p-tolyl)-6,7-dihydro-1H-pyrrolo[2,3-c]pyridin-5-yl)acetic acid] | 0.08 | 0.08
23 | Cn1c(C(OC(C)(C)C)C(=O)O)c(-c2ccc(Cl)cc2)c2c(Br)cn(Cc3ccccc3)c2c1=O (centres unmarked) [Example 14, 2-(1-benzyl-3-bromo-4-(4-chlorophenyl)-6-methyl-7-oxo-6,7-dihydro-1H-pyrrolo[2,3-c]pyridin-5-yl)-2-(tert-butoxy)acetic acid] | 0.75 | 0.75
24 | Cc1ccc(-c2c(C(OC(C)(C)C)C(=O)O)n(C)c(=O)c3c2ccn3Cc2ccc(B(O)O)cc2)cc1 (centres unmarked) [Example 21, 2-(1-(4-boronobenzyl)-6-methyl-7-oxo-4-(p-tolyl)-6,7-dihydro-1H-pyrrolo[2,3-c]pyridin-5-yl)-2-(tert-butoxy)acetic acid] | 2.7 | 2.7
25 | COCCn1ccc2c(-c3ccc4c(c3C)CCCO4)c(C(OC(C)(C)C)C(=O)O)n(C)c(=O)c21 (centres unmarked) [Example 43, 2-(tert-butoxy)-2-(1-(2-methoxyethyl)-6-methyl-4-(5-methylchroman-6-yl)-7-oxo-6,7-dihydro-1H-pyrrolo[2,3-c]pyridin-5-yl)acetic acid] | 1.1 | 1.1
